Ki data for two compounds are collected here from ChEMBL document CHEMBL1149893, “Recent developments of carbonic anhydrase inhibitors as potential anticancer drugs” (J Med Chem, 2008).

The assay deals with Carbonic anhydrase 9 (Homo sapiens, UniProt Q16790).

Structures are written as SMILES.

In general, Ki refers to the equilibrium dissociation constant of an inhibitor or competing ligand from its target. In the case of `COC(=O)[C@H]1O[C@@H](On2cc(CNC(=O)c3ccc(S(N)(=O)=O)cc3)nn2)[C@H](O)[C@@H](O)[C@@H]1O`, the Ki is 23 nM.
For `CC(=O)OC[C@H]1O[C@@H](On2cc(CNC(=O)c3ccc(S(N)(=O)=O)cc3)nn2)[C@H](OC(C)=O)[C@@H](OC(C)=O)[C@@H]1OC(C)=O` the value was 76 nM.
